The values that follow come from ChEMBL document CHEMBL4387728, “Synthetic glycopeptides reveal specific binding pattern and conformational change at O-mannosylated position of α-dystroglycan by POMGnT1 catalyzed GlcNAc modification” (Bioorg Med Chem, 2019).

One assay has as its system Maackia amurensis. The assay can be described thus: Binding affinity to biotin-labeled Maackia amurensis agglutinin in pH 7.4 Tris buffer by fluorescence microarray method.
The next assay has as its system Datura stramonium. The assay can be described thus: Binding affinity to biotin-labeled Datura stramonium agglutinin in pH 7.4 Tris buffer by fluorescence microarray method.
The test system of the next assay is Arachis hypogaea. The assay can be described thus: Binding affinity to biotin-labeled Arachis hypogaea agglutinin in pH 7.4 Tris buffer by fluorescence microarray method.
For assay [1], the system named is Sambucus racemosa subsp. sieboldiana. The assay can be described thus: Binding affinity to biotin-labeled Sambucus sieboldiana agglutinin in pH 7.4 Tris buffer by fluorescence microarray method.
A further assay relates to Erythrina crista-galli. The assay can be described thus: Binding affinity to biotin-labeled Erythrina crista-galli agglutinin in pH 7.4 Tris buffer by fluorescence microarray method.
The next assay deals with Triticum aestivum. The assay can be described thus: Binding affinity to biotin-labeled Wheat germ agglutinin in pH 7.4 Tris buffer by fluorescence microarray method.
For a further assay, the system named is Canavalia ensiformis. The assay can be described thus: Binding affinity to biotin-labeled Canavalia ensiformis agglutinin in pH 7.4 Tris buffer by fluorescence microarray method.
The target in assay [2] is Laminin subunit alpha-1 (Homo sapiens) (UniProt P25391). The assay can be described thus: Binding affinity to biotin-labeled human recombinant laminin-1 at 10 ug/ml in pH 7.4 Tris buffer by fluorescence microarray method.
Laminin subunit alpha-1 (Homo sapiens), sequence (P25391 whole entry): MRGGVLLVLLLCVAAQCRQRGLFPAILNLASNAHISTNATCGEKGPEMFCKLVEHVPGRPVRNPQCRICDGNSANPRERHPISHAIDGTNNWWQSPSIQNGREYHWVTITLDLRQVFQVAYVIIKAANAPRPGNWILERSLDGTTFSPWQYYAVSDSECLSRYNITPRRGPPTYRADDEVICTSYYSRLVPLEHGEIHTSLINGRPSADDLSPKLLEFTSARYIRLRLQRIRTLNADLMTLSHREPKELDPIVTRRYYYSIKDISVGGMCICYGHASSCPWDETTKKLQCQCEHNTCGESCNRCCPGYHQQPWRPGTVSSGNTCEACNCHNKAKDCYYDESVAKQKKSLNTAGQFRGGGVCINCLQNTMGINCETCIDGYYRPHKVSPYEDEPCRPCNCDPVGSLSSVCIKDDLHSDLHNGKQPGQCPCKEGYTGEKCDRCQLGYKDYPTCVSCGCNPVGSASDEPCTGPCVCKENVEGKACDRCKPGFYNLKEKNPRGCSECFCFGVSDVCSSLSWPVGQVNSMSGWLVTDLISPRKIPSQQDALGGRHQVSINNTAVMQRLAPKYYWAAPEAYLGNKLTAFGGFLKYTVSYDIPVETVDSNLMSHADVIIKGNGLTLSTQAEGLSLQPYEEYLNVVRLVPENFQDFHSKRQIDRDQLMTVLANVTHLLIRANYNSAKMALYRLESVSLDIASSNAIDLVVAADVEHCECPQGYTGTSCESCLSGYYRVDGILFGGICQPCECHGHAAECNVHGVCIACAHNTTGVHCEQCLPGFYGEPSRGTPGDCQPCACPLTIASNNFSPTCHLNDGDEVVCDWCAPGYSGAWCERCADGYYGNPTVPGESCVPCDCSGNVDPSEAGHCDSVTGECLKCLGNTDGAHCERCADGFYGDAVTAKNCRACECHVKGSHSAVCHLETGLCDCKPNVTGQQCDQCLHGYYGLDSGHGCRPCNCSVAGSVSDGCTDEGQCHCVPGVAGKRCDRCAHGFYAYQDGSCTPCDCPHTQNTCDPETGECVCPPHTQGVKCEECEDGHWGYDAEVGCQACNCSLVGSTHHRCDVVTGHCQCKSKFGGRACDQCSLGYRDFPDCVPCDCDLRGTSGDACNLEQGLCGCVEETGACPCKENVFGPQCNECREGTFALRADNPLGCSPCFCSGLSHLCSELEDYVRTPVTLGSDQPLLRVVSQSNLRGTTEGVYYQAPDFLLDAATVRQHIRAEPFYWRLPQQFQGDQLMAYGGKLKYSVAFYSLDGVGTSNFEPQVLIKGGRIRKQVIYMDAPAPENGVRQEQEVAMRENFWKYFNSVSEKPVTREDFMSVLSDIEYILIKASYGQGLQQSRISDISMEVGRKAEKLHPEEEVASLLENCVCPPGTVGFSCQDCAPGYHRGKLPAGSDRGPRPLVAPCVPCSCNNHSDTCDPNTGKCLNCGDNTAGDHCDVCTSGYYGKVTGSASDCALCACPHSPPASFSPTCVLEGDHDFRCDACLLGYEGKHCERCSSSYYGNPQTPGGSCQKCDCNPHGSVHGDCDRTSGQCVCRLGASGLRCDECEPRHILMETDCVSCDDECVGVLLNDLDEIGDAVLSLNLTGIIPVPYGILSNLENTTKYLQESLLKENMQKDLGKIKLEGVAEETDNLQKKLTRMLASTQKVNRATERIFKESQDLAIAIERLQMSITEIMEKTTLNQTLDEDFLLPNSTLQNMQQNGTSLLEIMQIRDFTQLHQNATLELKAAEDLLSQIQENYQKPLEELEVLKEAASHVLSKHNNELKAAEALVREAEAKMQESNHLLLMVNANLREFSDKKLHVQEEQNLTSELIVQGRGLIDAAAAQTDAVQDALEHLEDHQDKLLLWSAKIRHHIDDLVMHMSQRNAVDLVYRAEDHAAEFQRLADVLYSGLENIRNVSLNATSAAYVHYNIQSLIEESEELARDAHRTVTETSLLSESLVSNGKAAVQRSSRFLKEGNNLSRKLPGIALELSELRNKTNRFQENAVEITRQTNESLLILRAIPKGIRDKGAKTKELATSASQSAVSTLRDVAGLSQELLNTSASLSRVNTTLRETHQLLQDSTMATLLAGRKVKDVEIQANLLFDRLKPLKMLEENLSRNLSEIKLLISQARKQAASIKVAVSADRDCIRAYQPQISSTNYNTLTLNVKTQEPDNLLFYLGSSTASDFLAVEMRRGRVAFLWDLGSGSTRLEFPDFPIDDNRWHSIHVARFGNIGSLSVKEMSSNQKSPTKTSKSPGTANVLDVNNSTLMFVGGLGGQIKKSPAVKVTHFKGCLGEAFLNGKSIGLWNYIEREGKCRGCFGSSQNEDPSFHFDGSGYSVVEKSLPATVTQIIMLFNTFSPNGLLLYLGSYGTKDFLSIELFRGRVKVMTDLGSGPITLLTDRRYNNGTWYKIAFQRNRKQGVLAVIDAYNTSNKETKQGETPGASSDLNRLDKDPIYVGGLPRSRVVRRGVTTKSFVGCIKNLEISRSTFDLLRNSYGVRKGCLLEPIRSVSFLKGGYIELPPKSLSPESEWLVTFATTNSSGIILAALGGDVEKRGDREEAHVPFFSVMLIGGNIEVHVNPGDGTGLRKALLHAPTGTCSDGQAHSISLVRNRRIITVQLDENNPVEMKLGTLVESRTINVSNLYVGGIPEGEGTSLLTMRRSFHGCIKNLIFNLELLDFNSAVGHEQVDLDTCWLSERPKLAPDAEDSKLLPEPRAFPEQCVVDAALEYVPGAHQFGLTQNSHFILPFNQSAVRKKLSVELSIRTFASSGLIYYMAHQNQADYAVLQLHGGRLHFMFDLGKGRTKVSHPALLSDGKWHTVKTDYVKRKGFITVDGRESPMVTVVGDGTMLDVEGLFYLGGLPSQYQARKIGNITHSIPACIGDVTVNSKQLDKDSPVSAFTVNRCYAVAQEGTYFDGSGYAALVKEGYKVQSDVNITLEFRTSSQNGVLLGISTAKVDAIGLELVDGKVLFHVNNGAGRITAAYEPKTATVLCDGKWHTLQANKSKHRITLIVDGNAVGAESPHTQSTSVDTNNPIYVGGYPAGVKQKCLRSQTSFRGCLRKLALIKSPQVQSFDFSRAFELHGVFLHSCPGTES
The species named for assay [3] is Homo sapiens. The assay can be described thus: Binding affinity to biotin-labeled human recombinant laminin-2 at 10 ug/ml in pH 7.4 Tris buffer by fluorescence microarray method.
Assay [4] addresses Lactotransferrin (Homo sapiens) (UniProt P02788). The assay can be described thus: Binding affinity to biotin-labeled lactoferrin (unknown origin) at 10 ug/ml in pH 7.4 Tris buffer by fluorescence microarray method.
For assay [5], the target named is Laminin subunit alpha-1 (Homo sapiens) (UniProt P25391). The assay can be described thus: Binding affinity to biotin-labeled human recombinant laminin-1 at 10 ug/ml in pH 5.6 MES buffer by fluorescence microarray method.
In assay [6] the target is Lactotransferrin (Homo sapiens) (UniProt P02788). The assay can be described thus: Binding affinity to biotin-labeled lactoferrin (unknown origin) at 10 ug/ml in pH 5.6 MES buffer by fluorescence microarray method.
Lactotransferrin (Homo sapiens), sequence (P02788 whole entry): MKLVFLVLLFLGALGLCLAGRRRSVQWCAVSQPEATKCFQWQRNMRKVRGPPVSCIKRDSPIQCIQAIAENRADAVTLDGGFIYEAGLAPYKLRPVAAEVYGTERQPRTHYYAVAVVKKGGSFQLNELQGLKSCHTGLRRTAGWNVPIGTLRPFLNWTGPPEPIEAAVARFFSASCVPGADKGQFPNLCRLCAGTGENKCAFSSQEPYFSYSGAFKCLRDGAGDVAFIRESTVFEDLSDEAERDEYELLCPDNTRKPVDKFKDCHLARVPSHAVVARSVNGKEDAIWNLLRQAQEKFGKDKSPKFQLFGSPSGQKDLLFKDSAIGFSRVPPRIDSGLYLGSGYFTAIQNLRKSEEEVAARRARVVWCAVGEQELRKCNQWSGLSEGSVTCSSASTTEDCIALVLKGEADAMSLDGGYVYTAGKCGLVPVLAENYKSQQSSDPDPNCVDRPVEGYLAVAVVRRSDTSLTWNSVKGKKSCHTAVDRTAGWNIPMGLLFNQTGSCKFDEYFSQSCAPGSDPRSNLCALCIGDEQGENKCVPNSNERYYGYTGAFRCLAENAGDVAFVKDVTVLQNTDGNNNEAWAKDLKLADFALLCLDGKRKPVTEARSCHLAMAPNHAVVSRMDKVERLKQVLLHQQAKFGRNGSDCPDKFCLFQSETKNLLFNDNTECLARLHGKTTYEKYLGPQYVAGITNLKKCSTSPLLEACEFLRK
The species entered for assay [7] is Homo sapiens. The assay can be described thus: Binding affinity to biotin-labeled human recombinant laminin-2 at 10 ug/ml in 5.6 MES buffer by fluorescence microarray method.
A short description of assay [8]: Binding affinity to biotin-labeled Agaricus bisporus agglutinin in pH 7.4 Tris buffer by fluorescence microarray method.

Calls of active or inactive are those of the source. No cut-off for these calls is given here. Peptide text beside a SMILES is read from it. * marks the point of attachment. X1 = CC(=O)N[C@H]1[C@H](O[C@H]2[C@@H](O)[C@H](O)[C@@H](CO)O[C@@H]2*)O[C@H](CO)[C@@H](O[C@@H]2O[C@H](CO)[C@H](O)[C@H](O[C@]3(C(=O)O)C[C@H](O)[C@@H](NC(C)=O)[C@H]([C@H](O)[C@H](O)CO)O3)[C@H]2O)[C@@H]1O; X2 = CC(=O)N[C@H]1[C@H](O[C@H]2[C@@H](O)[C@H](O)[C@@H](CO)O[C@@H]2*)O[C@H](CO)[C@@H](O[C@@H]2O[C@H](CO)[C@H](O)[C@H](O)[C@H]2O)[C@@H]1O; GlcNAc(β1-2)αMan = CC(=O)N[C@H]1[C@H](O[C@H]2[C@@H](O)[C@H](O)[C@@H](CO)O[C@@H]2*)O[C@H](CO)[C@@H](O)[C@@H]1O; αMan = OC[C@H]1O[C@H](*)[C@@H](O)[C@@H](O)[C@@H]1O; Hexanoyl(5-oxo) = CC(=O)CCCC(=O)*

Consider `CC[C@H](C)[C@H](NC(=O)[C@H](C)NC(=O)CNC(=O)[C@H](CCCNC(=N)N)NC(=O)[C@@H](NC(=O)CCCC(C)=O)[C@@H](C)O)C(=O)N[C@H](C(=O)N[C@@H](CCC(N)=O)C(=O)N[C@H](C(=O)N1CCC[C@H]1C(=O)N[C@H](C(=O)N[C@@H](CC(C)C)C(=O)NCC(=O)N1CCC[C@H]1C(=O)N[C@H](C(=O)N[C@@H](CCC(N)=O)C(=O)N1CCC[C@H]1C(=O)N[C@H](C(=O)N[C@@H](CCCNC(=N)N)C(=O)N[C@H](C(N)=O)C(C)C)[C@@H](C)O[C@H]1O[C@H](CO)[C@@H](O)[C@H](O)[C@@H]1O[C@@H]1O[C@H](CO)[C@@H](O)[C@H](O)[C@H]1NC(C)=O)[C@@H](C)CC)[C@@H](C)O[C@H]1O[C@H](CO)[C@@H](O)[C@H](O)[C@@H]1O[C@@H]1O[C@H](CO)[C@@H](O[C@@H]2O[C@H](CO)[C@H](O)[C@H](O[C@]3(C(=O)O)C[C@H](O)[C@@H](NC(C)=O)[C@H]([C@H](O)[C@H](O)CO)O3)[C@H]2O)[C@H](O)[C@H]1NC(C)=O)[C@@H](C)O)[C@@H](C)CC` ({Hexanoyl(5-oxo)}-TRGAIIQTPT(X1)LGPIQPT(GlcNAc(β1-2)αMan)RV-NH2), for which the outcome (with Maackia amurensis; with Datura stramonium; in the assay listed under Homo sapiens [3]; in [4]) was inactive. For the same molecule, the result (in the assay on Arachis hypogaea; in assay [1]; in the assay with Erythrina crista-galli; in the assay on Triticum aestivum; in the assay with Canavalia ensiformis; in [2]) was Active. Also, the result (in [5]; in assay [6]; in the assay filed under Homo sapiens [7]; in assay [8]) was Active.
As for `CC[C@H](C)[C@H](NC(=O)[C@H](C)NC(=O)CNC(=O)[C@H](CCCNC(=N)N)NC(=O)[C@@H](NC(=O)CCCC(C)=O)[C@@H](C)O)C(=O)N[C@H](C(=O)N[C@@H](CCC(N)=O)C(=O)N[C@H](C(=O)N1CCC[C@H]1C(=O)N[C@H](C(=O)N[C@@H](CC(C)C)C(=O)NCC(=O)N1CCC[C@H]1C(=O)N[C@H](C(=O)N[C@@H](CCC(N)=O)C(=O)N1CCC[C@H]1C(=O)N[C@H](C(=O)N[C@@H](CCCNC(=N)N)C(=O)N[C@H](C(N)=O)C(C)C)[C@@H](C)O[C@H]1O[C@H](CO)[C@@H](O)[C@H](O)[C@@H]1O[C@@H]1O[C@H](CO)[C@@H](O[C@@H]2O[C@H](CO)[C@H](O)[C@H](O[C@]3(C(=O)O)C[C@H](O)[C@@H](NC(C)=O)[C@H]([C@H](O)[C@H](O)CO)O3)[C@H]2O)[C@H](O)[C@H]1NC(C)=O)[C@@H](C)CC)[C@@H](C)O[C@H]1O[C@H](CO)[C@@H](O)[C@H](O)[C@@H]1O[C@@H]1O[C@H](CO)[C@@H](O[C@@H]2O[C@H](CO)[C@H](O)[C@H](O[C@]3(C(=O)O)C[C@H](O)[C@@H](NC(C)=O)[C@H]([C@H](O)[C@H](O)CO)O3)[C@H]2O)[C@H](O)[C@H]1NC(C)=O)[C@@H](C)O)[C@@H](C)CC` ({Hexanoyl(5-oxo)}-TRGAIIQTPT(X1)LGPIQPT(X1)RV-NH2), the result (with Maackia amurensis; in the assay on Datura stramonium; in the assay listed under Homo sapiens [3]; in assay [4]) was inactive. Besides, the outcome (in the assay on Arachis hypogaea; in [1]; in the assay on Erythrina crista-galli; with Triticum aestivum; in the assay on Canavalia ensiformis; in [2]) was Active. In addition, the result (in assay [5]; in assay [6]; in the assay filed under Homo sapiens [7]; in [8]) was Active.
With `CC[C@H](C)[C@H](NC(=O)[C@H](C)NC(=O)CNC(=O)[C@H](CCCNC(=N)N)NC(=O)[C@@H](NC(=O)CCCC(C)=O)[C@@H](C)O)C(=O)N[C@H](C(=O)N[C@@H](CCC(N)=O)C(=O)N[C@H](C(=O)N1CCC[C@H]1C(=O)N[C@H](C(=O)N[C@@H](CC(C)C)C(=O)NCC(=O)N1CCC[C@H]1C(=O)N[C@H](C(=O)N[C@@H](CCC(N)=O)C(=O)N1CCC[C@H]1C(=O)N[C@H](C(=O)N[C@@H](CCCNC(=N)N)C(=O)N[C@H](C(N)=O)C(C)C)[C@@H](C)O[C@H]1O[C@H](CO)[C@@H](O)[C@H](O)[C@@H]1O[C@@H]1O[C@H](CO)[C@@H](O[C@@H]2O[C@H](CO)[C@H](O)[C@H](O)[C@H]2O)[C@H](O)[C@H]1NC(C)=O)[C@@H](C)CC)[C@@H](C)O[C@H]1O[C@H](CO)[C@@H](O)[C@H](O)[C@@H]1O[C@@H]1O[C@H](CO)[C@@H](O[C@@H]2O[C@H](CO)[C@H](O)[C@H](O[C@]3(C(=O)O)C[C@H](O)[C@@H](NC(C)=O)[C@H]([C@H](O)[C@H](O)CO)O3)[C@H]2O)[C@H](O)[C@H]1NC(C)=O)[C@@H](C)O)[C@@H](C)CC` ({Hexanoyl(5-oxo)}-TRGAIIQTPT(X1)LGPIQPT(X2)RV-NH2), the outcome (with Maackia amurensis; in the assay on Datura stramonium; in the assay listed under Homo sapiens [3]; in assay [4]) was inactive. Besides, the result (in the assay with Arachis hypogaea; in assay [1]; with Erythrina crista-galli; in the assay with Triticum aestivum; in the assay on Canavalia ensiformis; in assay [2]) was Active. In addition, the outcome (in [5]; in assay [6]; in the assay listed under Homo sapiens [7]; in [8]) was Active.
`CC[C@H](C)[C@H](NC(=O)[C@H](C)NC(=O)CNC(=O)[C@H](CCCNC(=N)N)NC(=O)[C@@H](NC(=O)CCCC(C)=O)[C@@H](C)O)C(=O)N[C@H](C(=O)N[C@@H](CCC(N)=O)C(=O)N[C@H](C(=O)N1CCC[C@H]1C(=O)N[C@H](C(=O)N[C@@H](CC(C)C)C(=O)NCC(=O)N1CCC[C@H]1C(=O)N[C@H](C(=O)N[C@@H](CCC(N)=O)C(=O)N1CCC[C@H]1C(=O)N[C@H](C(=O)N[C@@H](CCCNC(=N)N)C(=O)N[C@H](C(N)=O)C(C)C)[C@@H](C)O[C@H]1O[C@H](CO)[C@@H](O)[C@H](O)[C@@H]1O)[C@@H](C)CC)[C@@H](C)O[C@H]1O[C@H](CO)[C@@H](O)[C@H](O)[C@@H]1O[C@@H]1O[C@H](CO)[C@@H](O[C@@H]2O[C@H](CO)[C@H](O)[C@H](O[C@]3(C(=O)O)C[C@H](O)[C@@H](NC(C)=O)[C@H]([C@H](O)[C@H](O)CO)O3)[C@H]2O)[C@H](O)[C@H]1NC(C)=O)[C@@H](C)O)[C@@H](C)CC` ({Hexanoyl(5-oxo)}-TRGAIIQTPT(X1)LGPIQPT(αMan)RV-NH2): the result (with Maackia amurensis; with Datura stramonium; in the assay listed under Homo sapiens [3]; in assay [4]) was inactive. For the same molecule, the outcome (in the assay on Arachis hypogaea; in assay [1]; in the assay on Erythrina crista-galli; in the assay on Triticum aestivum; with Canavalia ensiformis; in assay [2]) was Active. Moreover, the outcome (in assay [5]; in assay [6]; in the assay filed under Homo sapiens [7]; in assay [8]) was Active.
Take `CC[C@H](C)[C@H](NC(=O)[C@H](C)NC(=O)CNC(=O)[C@H](CCCNC(=N)N)NC(=O)[C@@H](NC(=O)CCCC(C)=O)[C@@H](C)O)C(=O)N[C@H](C(=O)N[C@@H](CCC(N)=O)C(=O)N[C@H](C(=O)N1CCC[C@H]1C(=O)N[C@H](C(=O)N[C@@H](CC(C)C)C(=O)NCC(=O)N1CCC[C@H]1C(=O)N[C@H](C(=O)N[C@@H](CCC(N)=O)C(=O)N1CCC[C@H]1C(=O)N[C@H](C(=O)N[C@@H](CCCNC(=N)N)C(=O)N[C@H](C(N)=O)C(C)C)[C@@H](C)O)[C@@H](C)CC)[C@@H](C)O[C@H]1O[C@H](CO)[C@@H](O)[C@H](O)[C@@H]1O[C@@H]1O[C@H](CO)[C@@H](O[C@@H]2O[C@H](CO)[C@H](O)[C@H](O[C@]3(C(=O)O)C[C@H](O)[C@@H](NC(C)=O)[C@H]([C@H](O)[C@H](O)CO)O3)[C@H]2O)[C@H](O)[C@H]1NC(C)=O)[C@@H](C)O)[C@@H](C)CC` ({Hexanoyl(5-oxo)}-TRGAIIQTPT(X1)LGPIQPTRV-NH2): the result (in the assay on Maackia amurensis; in the assay with Datura stramonium; in the assay listed under Homo sapiens [3]; in assay [4]) was inactive. Also, the outcome (in the assay with Arachis hypogaea; in assay [1]; with Erythrina crista-galli; with Triticum aestivum; with Canavalia ensiformis; in assay [2]) was Active. Also, the outcome (in [5]; in assay [6]; in the assay listed under Homo sapiens [7]; in assay [8]) was Active.
